Patent US20260365670A1, “EGFR INHIBITORS AND USES THEREOF” (DIZAL (JIANGSU) PHARMACEUTICAL CO., LTD., priority 2022, published 2026)
Read-outs that look alike come from different tables or passages of the source.

Columns and labels:
EGFR wild type = target: T1, EGFR wild type (Homo sapiens, UniProt P00533); assay: Inhibition of EGFR wild type biochemical enzymatic activity (HTRF); conditions: EGFR WT, 1 mM ATP, 1 h, room temperature, read-out: IC50 (nM) @WT
T1 construct: purchased Carna Bio
Outline: (§1)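 HTRF kinase assay: each EGFR enzyme phosphorylated 1 μM biotinylated TK substrate with 1 mM ATP in buffer containing 5 mM MgCl2, 1 mM MnCl2, 0.01% CHAPS, 1 mM DTT, 0.5% DMSO. After 1 h at room temperature, EDTA detection mix stopped the reaction. IC50 came from a four-parameter logistic fit of the 665/615 nm ratio.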

EGFR L858R = target: T2, EGFR L858R (Homo sapiens, UniProt P00533, L858R); assay: Inhibition of EGFR L858R biochemical enzymatic activity (HTRF); conditions: 1 mM ATP, 1 h, room temperature, read-out: IC50 (nM) @L858R
T2 construct: purchased Carna Bio
Outline: as §1

EGFR L858R/T790M = target: T3, EGFR L858R/T790M (Homo sapiens, UniProt P00533, L858R/T790M); assay: Inhibition of EGFR L858R/T790M biochemical enzymatic activity (HTRF); conditions: EGFR L858R-T790M, 1 mM ATP, 1 h, room temperature, read-out: IC50 (nM) @L858R-T790M
T3 construct: purchased Carna Bio
Outline: as §1

EGFR Exon19Del = target: T4, EGFR Exon19Del (Homo sapiens, UniProt P00533, DEL746-750); assay: Inhibition of EGFR Exon19Del biochemical enzymatic activity (HTRF); conditions: EGFR Del19, 1 mM ATP, 1 h, room temperature, read-out: IC50 @Del19
T4 construct: purchased Carna Bio
Outline: as §1

EGFR Exon19Del/T790M = target: T5, EGFR Exon19Del/T790M (Homo sapiens, UniProt P00533, DEL746-750/T790M); assay: Inhibition of EGFR Exon19Del/T790M biochemical enzymatic activity (HTRF); conditions: EGFR Del19-T790M, 1 mM ATP, 1 h, room temperature, read-out: IC50 (nM) @Del19-T790M
T5 construct: purchased Carna Bio
Outline: as §1

EGFR[T790M/C797S/L858R] = target: T6, EGFR[T790M/C797S/L858R] (Homo sapiens, UniProt P00533, C797S/L858R/T790M); assay: Inhibition of EGFR[T790M/C797S/L858R] biochemical enzymatic activity (HTRF); conditions: EGFR T790M-C797S-L858R, 1 mM ATP, 1 h, room temperature, read-out: IC50 (nM) @T790M- C797S - L858R
T6 construct: purchased Carna Bio
Outline: as §1

[1] = target: T7, EGFR[T790M/C797S/d746-750] (Homo sapiens, UniProt P00533, C797S/DEL746-750/T790M); assay: Inhibition of EGFR[T790M/C797S/d746-750] biochemical enzymatic activity (HTRF); conditions: EGFR T790M-C797S-Del19, 1 mM ATP, 1 h, room temperature, read-out: IC50 (nM) @T790M - C797S - Del19
T7 construct: purchased Carna Bio
Outline: as §1

EGFR (d746-750 C797S) = target: T8, EGFR (d746-750 C797S) (Homo sapiens, UniProt P00533, C797S/DEL746-750); assay: Inhibition of EGFR (d746-750 C797S) biochemical enzymatic activity (HTRF); conditions: EGFR Del19-C797S, 1 mM ATP, 1 h, room temperature, read-out: IC50 (nM) @Del19-C797S
T8 construct: purchased signalchem
Outline: as §1

EGFR (C797S L858R) = target: T9, EGFR (C797S L858R) (Homo sapiens, UniProt P00533, C797S/L858R); assay: Inhibition of EGFR (C797S L858R) biochemical enzymatic activity (HTRF); conditions: EGFR L858-C797S, 1 mM ATP, 1 h, room temperature, read-out: IC50 (nM) @L858-C797S
T9 construct: purchased signalchem
Outline: as §1

[2] = system: Ba/F3 cells expressing EGFR mutations; assay: Cell proliferation assay, Ba/F3 cells expressing EGFR mutations (CellTiter-Glo, 72 hours); format: cell-based; conditions: Mus musculus, BaF3, 72 h
Outline: (§2)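 Seed Ba/F3 at 5000 cells/well and PC-9 at 500 cells/well (10% FBS RPMI1640); incubate overnight; add compound dilution series; read a G0 plate; incubate; read G3; GI50 from best-fit curve.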

PC-9 = assay: Cell proliferation assay, PC-9 cells (CellTiter-Glo, 72 hours); format: cell-based; conditions: Homo sapiens, PC-9, 72 h, PC9 cells, read-out: GI50 PC9
Outline: as §2

A-431 = assay: Cell proliferation assay, A-431 cells (GI50, Table 6); format: cell-based; conditions: Homo sapiens, A-431, A-431 cells
[3] = BaF3 cells, EGFR DEL19 - C797S, read-out: GI50 DEL19 - C797S/BaF3
[4] = BaF3 cells, EGFR DEL19 - T790-C797S, read-out: GI50 DEL19 - T790-C797S/BaF3
[5] = BaF3 cells, EGFR L858R - C797S, read-out: GI50 L858R - C797S/BaF3
[6] = BaF3 cells, EGFR L858R - T790-C797S, read-out: GI50 L858R - T790-C797S/BaF3
[7] = BaF3 cells, EGFR L858R - T790M, read-out: GI50 L858R - T790M/BaF3
[8] = BaF3 cells, EGFR L858R, read-out: GI50 L858R/BaF3
[9] = EGFR DEL19 - T790M, read-out: GI50 DEL19 - T790M

T2 sequence (P00533 25-1210 L858R): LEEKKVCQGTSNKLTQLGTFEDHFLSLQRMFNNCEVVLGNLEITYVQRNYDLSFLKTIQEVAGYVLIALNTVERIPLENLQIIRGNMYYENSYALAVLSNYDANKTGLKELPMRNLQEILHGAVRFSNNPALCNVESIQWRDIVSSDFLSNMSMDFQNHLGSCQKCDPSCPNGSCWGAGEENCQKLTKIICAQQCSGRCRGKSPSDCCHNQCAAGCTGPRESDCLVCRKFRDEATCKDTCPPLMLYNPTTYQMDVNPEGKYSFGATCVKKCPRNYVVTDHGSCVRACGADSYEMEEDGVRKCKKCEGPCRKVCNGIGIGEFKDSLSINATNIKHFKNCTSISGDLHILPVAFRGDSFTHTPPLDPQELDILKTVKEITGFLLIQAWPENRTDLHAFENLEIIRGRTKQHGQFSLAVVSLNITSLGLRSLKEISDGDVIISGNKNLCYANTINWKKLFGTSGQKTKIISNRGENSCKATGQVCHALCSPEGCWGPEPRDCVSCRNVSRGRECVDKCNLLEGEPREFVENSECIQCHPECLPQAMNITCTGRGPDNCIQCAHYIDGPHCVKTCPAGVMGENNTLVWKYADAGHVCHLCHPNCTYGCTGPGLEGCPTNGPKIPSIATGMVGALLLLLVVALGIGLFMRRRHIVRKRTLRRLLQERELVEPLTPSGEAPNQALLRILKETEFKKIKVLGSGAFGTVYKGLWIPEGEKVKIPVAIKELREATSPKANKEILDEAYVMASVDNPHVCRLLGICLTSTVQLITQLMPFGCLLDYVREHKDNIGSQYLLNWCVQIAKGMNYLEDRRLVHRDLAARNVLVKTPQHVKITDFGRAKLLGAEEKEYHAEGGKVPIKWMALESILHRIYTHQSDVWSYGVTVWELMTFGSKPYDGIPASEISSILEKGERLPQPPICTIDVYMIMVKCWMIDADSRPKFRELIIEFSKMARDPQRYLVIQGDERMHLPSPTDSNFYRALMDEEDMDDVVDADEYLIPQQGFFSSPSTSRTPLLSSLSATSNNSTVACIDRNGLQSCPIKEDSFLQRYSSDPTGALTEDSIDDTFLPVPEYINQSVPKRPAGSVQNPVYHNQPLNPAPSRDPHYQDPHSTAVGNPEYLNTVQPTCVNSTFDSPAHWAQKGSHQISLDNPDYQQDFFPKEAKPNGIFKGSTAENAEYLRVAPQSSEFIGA
T9 sequence (P00533 25-1210 C797S/L858R): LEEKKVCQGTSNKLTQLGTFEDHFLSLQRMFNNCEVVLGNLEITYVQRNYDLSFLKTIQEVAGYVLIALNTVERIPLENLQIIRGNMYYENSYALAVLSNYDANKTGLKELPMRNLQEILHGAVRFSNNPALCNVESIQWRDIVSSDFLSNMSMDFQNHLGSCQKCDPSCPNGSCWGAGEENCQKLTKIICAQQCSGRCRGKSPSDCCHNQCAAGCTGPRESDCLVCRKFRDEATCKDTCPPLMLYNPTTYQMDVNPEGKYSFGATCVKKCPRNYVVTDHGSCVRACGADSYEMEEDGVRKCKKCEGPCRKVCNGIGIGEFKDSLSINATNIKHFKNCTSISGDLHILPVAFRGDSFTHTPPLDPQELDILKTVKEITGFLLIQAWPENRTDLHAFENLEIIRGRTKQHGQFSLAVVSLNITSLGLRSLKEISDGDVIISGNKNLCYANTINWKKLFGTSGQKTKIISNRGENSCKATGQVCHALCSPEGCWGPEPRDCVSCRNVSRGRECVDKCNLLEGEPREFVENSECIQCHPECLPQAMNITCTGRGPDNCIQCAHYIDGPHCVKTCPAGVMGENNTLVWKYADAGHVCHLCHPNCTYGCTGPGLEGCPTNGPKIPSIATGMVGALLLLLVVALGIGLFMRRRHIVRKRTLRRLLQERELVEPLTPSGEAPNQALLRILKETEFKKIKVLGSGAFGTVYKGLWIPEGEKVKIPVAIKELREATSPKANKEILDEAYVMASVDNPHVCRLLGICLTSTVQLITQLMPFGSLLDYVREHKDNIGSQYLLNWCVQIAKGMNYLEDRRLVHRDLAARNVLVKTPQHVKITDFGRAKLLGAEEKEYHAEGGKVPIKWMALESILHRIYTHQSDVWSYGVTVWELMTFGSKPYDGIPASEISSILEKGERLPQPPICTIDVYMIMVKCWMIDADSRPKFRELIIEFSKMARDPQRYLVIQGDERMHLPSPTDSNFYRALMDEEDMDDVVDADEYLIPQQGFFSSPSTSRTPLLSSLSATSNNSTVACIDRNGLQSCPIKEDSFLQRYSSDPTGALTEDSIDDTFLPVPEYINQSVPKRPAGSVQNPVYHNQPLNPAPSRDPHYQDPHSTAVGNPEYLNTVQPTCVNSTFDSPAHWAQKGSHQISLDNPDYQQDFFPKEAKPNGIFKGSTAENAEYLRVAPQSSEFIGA
T7 sequence (P00533 with tags, fused parts or gaps DEL746-750/T790M/C797S limits assumed): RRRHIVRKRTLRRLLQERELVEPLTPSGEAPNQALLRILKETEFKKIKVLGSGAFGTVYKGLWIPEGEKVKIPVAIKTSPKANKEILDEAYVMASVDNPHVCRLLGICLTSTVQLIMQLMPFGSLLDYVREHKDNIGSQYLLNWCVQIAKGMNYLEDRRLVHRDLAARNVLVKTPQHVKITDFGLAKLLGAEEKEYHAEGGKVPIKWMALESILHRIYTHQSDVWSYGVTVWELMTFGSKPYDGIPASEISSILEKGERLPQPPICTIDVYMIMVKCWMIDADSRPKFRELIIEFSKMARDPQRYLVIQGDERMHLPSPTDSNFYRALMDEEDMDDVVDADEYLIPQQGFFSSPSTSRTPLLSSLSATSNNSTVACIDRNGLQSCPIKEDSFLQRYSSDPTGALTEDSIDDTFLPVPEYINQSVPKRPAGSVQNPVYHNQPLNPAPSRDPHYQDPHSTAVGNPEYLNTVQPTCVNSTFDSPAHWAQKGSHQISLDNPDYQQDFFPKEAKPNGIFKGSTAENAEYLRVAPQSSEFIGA
T5 sequence (P00533 with tags, fused parts or gaps DEL746-750/T790M limits assumed): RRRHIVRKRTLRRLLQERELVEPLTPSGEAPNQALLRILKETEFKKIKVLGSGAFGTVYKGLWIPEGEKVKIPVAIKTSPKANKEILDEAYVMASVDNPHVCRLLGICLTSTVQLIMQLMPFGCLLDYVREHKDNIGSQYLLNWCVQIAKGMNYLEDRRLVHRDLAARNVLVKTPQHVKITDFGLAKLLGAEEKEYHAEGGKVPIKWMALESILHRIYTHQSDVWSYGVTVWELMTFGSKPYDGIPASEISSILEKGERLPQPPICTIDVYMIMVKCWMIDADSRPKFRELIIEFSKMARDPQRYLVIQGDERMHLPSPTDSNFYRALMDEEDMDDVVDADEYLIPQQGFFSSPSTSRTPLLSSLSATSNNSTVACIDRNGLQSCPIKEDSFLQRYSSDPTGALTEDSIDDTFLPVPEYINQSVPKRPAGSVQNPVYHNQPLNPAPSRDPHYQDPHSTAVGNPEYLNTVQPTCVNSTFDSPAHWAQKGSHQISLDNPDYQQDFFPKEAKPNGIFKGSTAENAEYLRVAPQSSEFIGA
T6 sequence (P00533 25-1210 T790M/C797S/L858R): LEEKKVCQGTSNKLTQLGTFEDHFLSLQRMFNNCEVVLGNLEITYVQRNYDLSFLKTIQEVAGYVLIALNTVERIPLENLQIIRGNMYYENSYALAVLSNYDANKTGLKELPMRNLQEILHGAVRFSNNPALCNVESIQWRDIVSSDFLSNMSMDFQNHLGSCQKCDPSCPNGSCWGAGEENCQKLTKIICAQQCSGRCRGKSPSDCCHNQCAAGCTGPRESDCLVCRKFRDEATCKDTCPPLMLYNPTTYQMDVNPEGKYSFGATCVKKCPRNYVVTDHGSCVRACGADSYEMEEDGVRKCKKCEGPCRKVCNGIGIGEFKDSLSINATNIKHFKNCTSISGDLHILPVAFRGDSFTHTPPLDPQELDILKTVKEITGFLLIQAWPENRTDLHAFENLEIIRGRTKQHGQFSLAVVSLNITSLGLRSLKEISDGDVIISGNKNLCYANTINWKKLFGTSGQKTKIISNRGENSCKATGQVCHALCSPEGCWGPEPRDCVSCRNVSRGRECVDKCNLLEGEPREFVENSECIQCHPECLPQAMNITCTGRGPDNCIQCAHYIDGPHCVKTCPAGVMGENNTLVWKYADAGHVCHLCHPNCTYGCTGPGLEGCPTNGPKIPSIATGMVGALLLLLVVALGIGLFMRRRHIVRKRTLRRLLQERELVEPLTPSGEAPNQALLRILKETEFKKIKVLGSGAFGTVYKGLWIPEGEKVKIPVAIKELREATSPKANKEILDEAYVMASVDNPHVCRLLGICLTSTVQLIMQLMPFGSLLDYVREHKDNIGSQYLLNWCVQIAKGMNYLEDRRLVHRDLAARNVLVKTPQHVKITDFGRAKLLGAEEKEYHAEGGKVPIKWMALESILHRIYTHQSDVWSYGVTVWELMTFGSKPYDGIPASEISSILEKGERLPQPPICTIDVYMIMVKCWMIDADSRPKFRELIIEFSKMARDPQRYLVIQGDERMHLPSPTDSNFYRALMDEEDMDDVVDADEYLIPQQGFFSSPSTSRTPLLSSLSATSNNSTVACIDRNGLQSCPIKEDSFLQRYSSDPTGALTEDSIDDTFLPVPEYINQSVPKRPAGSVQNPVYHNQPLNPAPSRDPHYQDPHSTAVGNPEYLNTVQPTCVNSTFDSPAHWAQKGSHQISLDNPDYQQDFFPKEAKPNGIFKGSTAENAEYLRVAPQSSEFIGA

Structure (SMILES) | IC50 (EGFR wild type) | IC50 (EGFR L858R) | IC50 (EGFR L858R/T790M) | IC50 (EGFR Exon19Del) | IC50 (EGFR Exon19Del/T790M) | IC50 (EGFR[T790M/C797S/L858R]) | IC50 [1] | IC50 (EGFR (d746-750 C797S)) | IC50 (EGFR (C797S L858R)) | GI50 [2, 3] | GI50 [2, 4] | GI50 [2, 5] | GI50 [2, 6] | GI50 [2, 7] | GI50 [2, 8] | GI50 [2, 9] | GI50 (PC-9) | GI50 (A-431)
C[C@@H]1CCCOc2ccccc2-c2cc(cn(C)c2=O)C(=O)Nc2nc3ccc(N4CCN(C)CC4)cc3n2C1 [Example A109, (12R)-12,27-dimethyl-17-(4-methylpiperazin-1-yl)-8-oxa-14,21,23,27-tetraazapentacyclo[23.3.1.0^{2,7}.0^{14,22}.0^{15,20}]nonacosa-1(29),2(7),3,5,15,17,19,21,25-nonaene-24,28-dione] | 219 nM | 16 nM | 11 nM | 4.7 nM | 7.9 nM | 10 nM | 7.6 nM | 3.1 nM | 9.8 nM | 1.7 nM | 15 nM | 23 nM | 27 nM | 34 nM | 21 nM | 16 nM | 15 nM | 489 nM
C[C@@H]1CCCOc2ccc(F)cc2-c2cc(cn(C)c2=O)C(=O)Nc2nc3ccc(N4CCN(C)CC4)cc3n2C1 [Example A110, (12R)-4-fluoro-12,27-dimethyl-17-(4-methylpiperazin-1-yl)-8-oxa-14,21,23,27-tetraazapentacyclo[23.3.1.0^{2,7}.0^{14,22}.0^{15,20}]nonacosa-1(29),2(7),3,5,15,17,19,21,25-nonaene-24,28-dione] | 216 nM | 6.2 nM | 5.1 nM | 2.8 nM | 2.9 nM | 6.1 nM | 3.2 nM | 1.7 nM | 4.9 nM | 2.6 nM | 26 nM | 14 nM | 30 nM | 50 nM | 9.6 nM | 22 nM | 112 nM | 529 nM
C[C@@H]1CCCOc2cc(F)c(F)cc2-c2cc(cn(C)c2=O)C(=O)Nc2nc3ccc(N4CCN(C)CC4)cc3n2C1 [Example A111, (12R)-4,5-difluoro-12,27-dimethyl-17-(4-methylpiperazin-1-yl)-8-oxa-14,21,23,27-tetraazapentacyclo[23.3.1.0^{2,7}.0^{14,22}.0^{15,20}]nonacosa-1(29),2(7),3,5,15,17,19,21,25-nonaene-24,28-dione] | 607 nM | 36 nM | 86 nM | 21 nM | 46 nM | 63 nM | 47 nM | 18 nM | 40 nM | 30.3 nM | 326 nM | 125 nM | 309 nM | 658 nM | 103 nM | 325 nM | 334 nM | 8230 nM
CN1CCN(c2ccc3nc4n(c3c2)C(C)(C)CCCCOc2c(cnn2C)-c2cc(cn(C)c2=O)C(=O)N4)CC1 [Example A112, 5,12,12,26-Tetramethyl-16-(4-methylpiperazin-1-yl)-7-oxa-4,5,13,20,22,26-hexaazapentacyclo[22.3.1.0^{2,6}.0^{13,21}.0^{14,19}]octacosa-1(28),2(6),3,14,16,18,20,24-octaene-23,27-dione] | > 5000 nM | 198 nM | 133 nM | 8.5 nM | 15 nM | 52 nM | 12 nM | 6.6 nM | 60 nM | 4.5 nM | 70 nM | 47 nM | 64 nM | 37 nM | 89 nM | 105 nM | 45 nM | 3590 nM
Cn1ncc2c1OCCN1CC3CCC(CC3)(C1)n1c(nc3cc(F)c(N4CCOCC4)cc31)NC(=O)c1cc-2c(=O)n(C)c1 [Example A113, 6-Fluoro-15,21-dimethyl-5-(morpholin-4-yl)-23-oxa-2,9,11,15,20,21,26-heptaazaheptacyclo[26.2.2.1^{1,26}.1^{13,17}.0^{2,10}.0^{3,8}.0^{18,22}]tetratriaconta-3,5,7,9,13,17(34),18(22),19-octaene-12,16-dione] | > 5000 nM | 439 nM | 230 nM | 41 nM | 32 nM | 900 nM | 45 nM | 1200 nM | 46 nM | 15 nM | 108 nM | 172 nM | 230 nM | 255 nM | 121 nM | 63 nM | 147 nM | 4690 nM
Cn1ncc2c1OCCN1CC3CCC(CC3)(C1)n1c(nc3cc(F)ccc31)NC(=O)c1cc-2c(=O)n(C)c1 [Example A116, 6-fluoro-15,21-dimethyl-23-oxa-2,9,11,15,20,21,26-heptaazaheptacyclo[26.2.2.1^{1,26}.1^{13,17}.0^{2,10}.0^{3,8}.0^{18,22}]tetratriaconta-3,5,7,9,13,17(34),18(22),19-octaene-12,16-dione] | > 5000 nM | > 5000 nM | > 5000 nM | 464 nM | 88 nM | > 5000 nM | 168 nM | 474 nM | 3700 nM | 56 nM | 336 nM | 194 nM | 162 nM | 720 nM | 419 nM | 157 nM | 256 nM | 3440 nM
